Results: article PMC9414551 (Pharmaceuticals, 2022)

Columns and labels:
NR1-2C NMDAR [1] = biological target: T1, NR1-2C NMDAR (Homo sapiens, UniProt Q05586+Q14957); assay: cell-based; format: cell-based; design: host or cells: CHO (CHO-hN1-h2C), tetracycline-induced expression
NR1-2A NMDAR [2] = biological target: T2, NR1-2A NMDAR (Homo sapiens, UniProt Q05586+Q12879); assay: cell-based; format: cell-based; design: host or cells: CHO (CHO-hNR1-h2A), tetracycline-induced expression
NR1-2D NMDAR [3] = biological target: T3, NR1-2D NMDAR (Homo sapiens, UniProt O15399+Q05586); assay: cell-based; format: cell-based; design: host or cells: CHO (CHO-hN1-h2D), tetracycline-induced expression
NR1-2B NMDAR [4] = biological target: T4, NR1-2B NMDAR (Homo sapiens, UniProt Q05586+Q13224); assay: cell-based; format: cell-based; design: host or cells: CHO (CHO-hNR1-h2B), constitutive expression
T4 sequence (Q13224 27-1484, other chains not shown): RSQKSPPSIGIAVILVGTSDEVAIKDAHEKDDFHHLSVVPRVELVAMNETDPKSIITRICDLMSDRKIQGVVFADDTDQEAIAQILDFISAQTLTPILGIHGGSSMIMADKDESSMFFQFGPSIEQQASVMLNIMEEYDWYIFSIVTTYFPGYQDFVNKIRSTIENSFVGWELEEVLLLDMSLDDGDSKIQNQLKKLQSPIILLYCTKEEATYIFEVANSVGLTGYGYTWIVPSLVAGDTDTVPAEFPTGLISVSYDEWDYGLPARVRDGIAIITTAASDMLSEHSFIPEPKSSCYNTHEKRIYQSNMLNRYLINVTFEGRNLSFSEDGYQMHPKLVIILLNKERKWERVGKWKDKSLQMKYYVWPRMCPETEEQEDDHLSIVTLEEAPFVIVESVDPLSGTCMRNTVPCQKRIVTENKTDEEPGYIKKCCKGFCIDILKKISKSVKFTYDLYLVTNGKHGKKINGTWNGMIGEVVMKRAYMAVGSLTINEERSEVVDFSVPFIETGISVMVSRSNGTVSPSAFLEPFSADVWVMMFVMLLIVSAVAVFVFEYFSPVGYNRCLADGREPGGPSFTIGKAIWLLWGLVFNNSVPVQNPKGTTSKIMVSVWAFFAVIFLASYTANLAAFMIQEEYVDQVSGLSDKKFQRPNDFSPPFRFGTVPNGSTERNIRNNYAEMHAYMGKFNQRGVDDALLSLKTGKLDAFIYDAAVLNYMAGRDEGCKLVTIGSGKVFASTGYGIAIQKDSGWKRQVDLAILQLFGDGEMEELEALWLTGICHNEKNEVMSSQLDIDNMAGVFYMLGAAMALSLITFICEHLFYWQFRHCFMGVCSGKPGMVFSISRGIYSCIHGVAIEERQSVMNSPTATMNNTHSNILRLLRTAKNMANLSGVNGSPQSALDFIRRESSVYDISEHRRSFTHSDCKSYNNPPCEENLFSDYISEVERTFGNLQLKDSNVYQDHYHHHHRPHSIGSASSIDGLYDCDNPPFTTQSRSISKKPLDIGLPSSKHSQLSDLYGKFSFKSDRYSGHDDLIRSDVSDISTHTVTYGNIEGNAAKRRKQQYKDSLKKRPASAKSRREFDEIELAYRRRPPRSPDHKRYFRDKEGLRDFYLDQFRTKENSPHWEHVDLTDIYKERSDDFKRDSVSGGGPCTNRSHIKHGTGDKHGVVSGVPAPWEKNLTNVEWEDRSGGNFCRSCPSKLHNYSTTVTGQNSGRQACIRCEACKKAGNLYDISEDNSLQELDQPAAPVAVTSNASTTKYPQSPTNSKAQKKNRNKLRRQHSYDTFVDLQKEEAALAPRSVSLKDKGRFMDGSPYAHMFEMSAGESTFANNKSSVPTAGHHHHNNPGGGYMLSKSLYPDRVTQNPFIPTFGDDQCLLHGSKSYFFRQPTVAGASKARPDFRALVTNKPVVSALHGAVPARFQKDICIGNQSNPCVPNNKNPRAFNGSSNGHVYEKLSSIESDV

NMDAR = biological target: NMDAR; design: method as in Eurofins Panlabs Discovery Services Taiwan; details: assay parameter of the contract laboratory; ref Eurofins Panlabs Discovery Services Taiwan; read-out: Kd of the radioligand; cited from earlier work
NR1-2B NMDAR [5] = biological target: T4, NR1-2B NMDAR; assay: Whole-cell automated patch-clamp (QPatch) in 1 mM Mg2+; format: cell-based; design: host or cells: CHO (CHO-hNR1-h2B), constitutive expression; details: 1 mM MgCl2, 10 μM L-glutamate, 10 μM glycine
Description: (§1) Data were obtained in automated patch-clamp platform. […] Statistical results of one-way analysis of variance (ANOVA) followed by Tukey’s multiple comparisons test also reported p < 0.05 (*), p < 0.01 (**), p < 0.001 (***), and p < 0.0001 (****). Glu is glutamate.
(§2) For QPatch experiments, cells were grown in T-flasks first at 37 °C, 5% CO2 for 3 to 4 h, then at 30 °C, 5% CO2 for 18 to 24 h in DMEM/F12 medium with added 500 μM ketamine and 10 μg/mL tetracycline (except for NR1-2B-CHO cells) without additional antibiotics. Cells were manually detached from the culture dish and automatically dispensed in QPatch wells with extracellular solution in the presence of 1 mM Mg^2+ and 500 μM ketamine.
(§3) Holding potential was −80 mV, and voltage protocol included a depolarizing 2-s step pulse to +60 mV to check the quality of the seal and cell NMDAR expression level, followed by a 2-s ramp-up to holding potential.

NR1-2C NMDAR [6] = biological target: T1, NR1-2C NMDAR; assay: as above; format: cell-based; design: host or cells: CHO (CHO-hN1-h2C), tetracycline-induced expression; details: 1 mM MgCl2, 10 μM L-glutamate, 10 μM glycine
Description: as §1, §2, §3

NR1-2A NMDAR [7] = biological target: T2, NR1-2A NMDAR; assay: as above; format: cell-based; design: host or cells: CHO (CHO-hNR1-h2A), tetracycline-induced expression; details: 1 mM MgCl2, 10 μM L-glutamate, 10 μM glycine
Description: as §1, §2, §3

NR1-2D NMDAR [8] = biological target: T3, NR1-2D NMDAR; assay: as above; format: cell-based; design: host or cells: CHO (CHO-hN1-h2D), tetracycline-induced expression; details: 1 mM MgCl2, 10 μM L-glutamate, 10 μM glycine
Description: as §1, §2, §3

T1 sequence (Q14957 20-1233, other chains not shown): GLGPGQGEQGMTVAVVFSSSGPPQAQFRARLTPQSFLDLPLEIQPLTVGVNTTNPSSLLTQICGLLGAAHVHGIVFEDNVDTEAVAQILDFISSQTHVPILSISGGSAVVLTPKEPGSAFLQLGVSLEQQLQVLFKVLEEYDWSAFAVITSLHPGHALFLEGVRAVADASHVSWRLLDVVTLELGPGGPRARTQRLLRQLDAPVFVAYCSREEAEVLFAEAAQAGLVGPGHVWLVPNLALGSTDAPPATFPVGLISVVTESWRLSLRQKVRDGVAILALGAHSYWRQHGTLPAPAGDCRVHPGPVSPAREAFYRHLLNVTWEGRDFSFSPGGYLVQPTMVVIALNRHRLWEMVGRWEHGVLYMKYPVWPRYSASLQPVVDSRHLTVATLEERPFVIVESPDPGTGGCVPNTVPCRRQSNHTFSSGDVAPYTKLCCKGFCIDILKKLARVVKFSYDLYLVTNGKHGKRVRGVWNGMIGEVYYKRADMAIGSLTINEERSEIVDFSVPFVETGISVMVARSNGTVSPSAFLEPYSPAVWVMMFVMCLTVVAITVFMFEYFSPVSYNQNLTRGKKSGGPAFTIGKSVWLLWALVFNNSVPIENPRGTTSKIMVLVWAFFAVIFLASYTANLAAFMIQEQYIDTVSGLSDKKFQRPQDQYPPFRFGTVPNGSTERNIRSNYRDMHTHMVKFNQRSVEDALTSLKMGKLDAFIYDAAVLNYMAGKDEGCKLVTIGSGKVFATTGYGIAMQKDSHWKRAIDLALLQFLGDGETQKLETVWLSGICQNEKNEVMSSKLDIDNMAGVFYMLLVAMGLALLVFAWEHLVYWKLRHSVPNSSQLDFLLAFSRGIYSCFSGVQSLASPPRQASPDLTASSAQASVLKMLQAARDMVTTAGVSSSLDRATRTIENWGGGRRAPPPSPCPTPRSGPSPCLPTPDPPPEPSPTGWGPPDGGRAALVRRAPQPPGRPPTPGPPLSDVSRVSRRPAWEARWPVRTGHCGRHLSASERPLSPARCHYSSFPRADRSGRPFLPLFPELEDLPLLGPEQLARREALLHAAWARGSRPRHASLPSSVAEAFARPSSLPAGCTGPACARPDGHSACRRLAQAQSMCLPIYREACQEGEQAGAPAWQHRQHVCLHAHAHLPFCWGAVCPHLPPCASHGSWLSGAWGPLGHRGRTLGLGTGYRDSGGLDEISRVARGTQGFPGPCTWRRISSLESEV
T2 sequence (Q12879 23-1464, other chains not shown): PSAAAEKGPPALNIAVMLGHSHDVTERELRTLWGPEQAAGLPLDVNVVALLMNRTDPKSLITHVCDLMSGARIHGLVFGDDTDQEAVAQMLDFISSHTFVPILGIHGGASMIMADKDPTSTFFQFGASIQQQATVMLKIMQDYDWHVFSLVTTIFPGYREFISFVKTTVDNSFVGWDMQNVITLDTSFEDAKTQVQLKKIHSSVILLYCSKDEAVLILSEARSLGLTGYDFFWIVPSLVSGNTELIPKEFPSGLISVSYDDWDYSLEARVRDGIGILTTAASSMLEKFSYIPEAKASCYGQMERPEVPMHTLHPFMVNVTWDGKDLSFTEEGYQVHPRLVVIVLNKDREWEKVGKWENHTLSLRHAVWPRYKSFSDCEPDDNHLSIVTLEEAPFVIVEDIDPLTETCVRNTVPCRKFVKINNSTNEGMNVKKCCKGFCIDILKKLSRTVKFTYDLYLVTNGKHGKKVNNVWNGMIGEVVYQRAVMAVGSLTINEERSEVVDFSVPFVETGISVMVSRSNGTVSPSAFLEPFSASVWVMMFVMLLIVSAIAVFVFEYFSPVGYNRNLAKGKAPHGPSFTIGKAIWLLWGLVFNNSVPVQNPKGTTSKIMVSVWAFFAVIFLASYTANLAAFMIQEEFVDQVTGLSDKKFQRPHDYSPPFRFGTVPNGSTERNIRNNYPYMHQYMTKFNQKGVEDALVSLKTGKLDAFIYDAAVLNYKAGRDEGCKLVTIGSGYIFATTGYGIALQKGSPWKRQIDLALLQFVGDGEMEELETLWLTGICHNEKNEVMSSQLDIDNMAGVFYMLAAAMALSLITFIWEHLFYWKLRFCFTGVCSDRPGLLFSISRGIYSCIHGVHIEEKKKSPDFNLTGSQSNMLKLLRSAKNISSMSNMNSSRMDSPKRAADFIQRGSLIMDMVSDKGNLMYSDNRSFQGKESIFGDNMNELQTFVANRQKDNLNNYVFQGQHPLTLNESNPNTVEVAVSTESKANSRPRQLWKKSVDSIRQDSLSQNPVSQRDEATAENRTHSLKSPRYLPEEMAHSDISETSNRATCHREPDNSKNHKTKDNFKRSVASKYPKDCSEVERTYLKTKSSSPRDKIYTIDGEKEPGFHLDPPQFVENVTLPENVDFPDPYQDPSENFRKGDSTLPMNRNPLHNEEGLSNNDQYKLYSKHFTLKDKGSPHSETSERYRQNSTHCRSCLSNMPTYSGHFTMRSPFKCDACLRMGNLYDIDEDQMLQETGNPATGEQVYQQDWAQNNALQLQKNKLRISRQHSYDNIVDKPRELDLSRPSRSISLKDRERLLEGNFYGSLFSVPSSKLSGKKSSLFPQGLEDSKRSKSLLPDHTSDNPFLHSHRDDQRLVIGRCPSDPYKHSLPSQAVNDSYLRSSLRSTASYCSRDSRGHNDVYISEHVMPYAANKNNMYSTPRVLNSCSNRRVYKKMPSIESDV

N[C@@H](CCC(=O)O)C(=O)O [L-glutamate]
L-glutamate Max. (maximal asymptote), alone (NR1-2C NMDAR [1]): 106% | L-glutamate Max. (maximal asymptote), alone (NR1-2A NMDAR [2]): 106% | L-glutamate Max. (maximal asymptote), alone (NR1-2D NMDAR [3]): 105% | L-glutamate Max. (maximal asymptote), alone (NR1-2B NMDAR [4]): 111%

c1csc(C2(N3CCCCC3)CCCCC2)c1 [[^3H]TCP]
Kd (NMDAR): 8.4 nM

[Cl-].[Cl-].[Mg+2] [MgCl2]
current at −60 mV normalized to −30 mV current (100%) (NR1-2B NMDAR [5]): 26 ± 1.8% | current at −60 mV normalized to −30 mV current (100%) (NR1-2C NMDAR [6]): 64 ± 5.6% | current at −60 mV normalized to −30 mV current (100%) (NR1-2A NMDAR [7]): 24 ± 2.4% | current at −60 mV normalized to −30 mV current (100%) (NR1-2D NMDAR [8]): 55 ± 1.8%
